Columns and labels:
[1] = Inhibition of PDK1 (unknown origin) by SelectScreen kinase assay
[2] = Inhibition of VEGFR-2 (unknown origin) induced tube formation in HUVECs cocultured with fibroblasts measured after 11 days with media renewing every 3 days by staining based analysis
[3] = target: Cyclin-dependent kinase 2 (Homo sapiens, UniProt P24941); test: Inhibition of CDK2 (unknown origin)

| Structure (SMILES) | IC50 [3] [nM] | other results |
| --- | --- | --- |
| COc1cc2c(cc1OC)CN(CC(=O)Nc1ccc3c(c1)/C(=C/c1cnc[nH]1)C(=O)N3)CC2 | – | IC50 [1]: 98 µM |
| CCN(CC)CCN1Cc2[nH]c(/C=C3\C(=O)Nc4ccc(Br)cc43)c(C)c2C1=O | – | IC50 [2]: 179 nM |
| O=C1Nc2ccc(Br)cc2/C1=N/NC(=O)c1cc2cc(Br)ccc2o1 | 38 | – |
| COc1ccc2c(c1)/C(=N/NC(=O)c1cc3cc(Br)ccc3o1)C(=O)N2 | 53 | – |

Source: BindingDB's records for PubMed 33721669 (National Institute of Pharmaceutical Education and Research …, 2021)
